In brackets after ≈: the same amount, converted by molar mass.
Columns and labels:
MDA-MB-231 = assay: Cytotoxicity against human MDA-MB-231 cells assessed as cell growth inhibition after 48 hrs by MTT assay; format: functional; conditions: MDA-MB-231, 48 h
[1] = biological target: Interleukin-1 receptor-associated kinase 1 (Homo sapiens) (UniProt P51617); assay: Inhibition of human IRAK1 (1 to 712 residues) assessed as remaining enzyme activity at 50 uM after 30 mins by 33P-ATP filter-binding assay
[2] = Cytotoxicity against human BxPC3 cells assessed as cell growth inhibition after 48 hrs by MTT assay; format: functional; conditions: BXPC-3, 48 h
[3] = biological target: Dual specificity protein kinase TTK (Homo sapiens) (UniProt P33981); assay: Inhibition of human TTK (1 to 857 residues) assessed as remaining enzyme activity at 50 uM after 30 mins by 33P-ATP filter-binding assay
[4] = Stability in pH 6.8 buffer at 120 ug/ml after 8 hrs by RP-HPLC analysis; format: physicochemical; conditions: pH 6.8, 8 h
[5] = Thermodynamic equilibrium solubility in PBS buffer at 120 ug/ml at pH 7.4 by HPLC analysis; format: physicochemical; conditions: read-out: Therm_solubility
[6] = Cytotoxicity against HEK293 cells assessed as cell growth inhibition after 48 hrs by MTT assay; format: cell-based; conditions: human
[7] = biological target: Tyrosine-protein kinase CSK (Homo sapiens) (UniProt P41240); assay: Inhibition of human CSK (1 to 450 residues) assessed as remaining enzyme activity at 50 uM after 30 mins by 33P-ATP filter-binding assay
[8] = biological target: MAP kinase-activated protein kinase 2 (Homo sapiens) (UniProt P49137); assay: Inhibition of human MAPKAPK2 assessed as remaining enzyme activity at 50 uM after 30 mins by 33P-ATP filter-binding assay
[9] = biological target: Serine/threonine-protein kinase pim-2 (Homo sapiens) (UniProt Q9P1W9); assay: Inhibition of human PIM2 (2 to 334 residues) assessed as remaining enzyme activity at 50 uM after 30 mins by 33P-ATP filter-binding assay
[10] = biological target: T1, CDK2/Cyclin A2 (Homo sapiens) (UniProt P24941+P20248); assay: Inhibition of human Cdk2/cyclin A at 0.5 uM using Histone H1 substrate after 30 mins by 33P-ATP filter-binding assay; format: protein-complex assay
[11] = biological target: Protein kinase C gamma type (Homo sapiens) (UniProt P05129); assay: Inhibition of human PKCgamma (1 to 697 residues) assessed as remaining enzyme activity at 50 uM after 30 mins by 33P-ATP filter-binding assay
[12] = biological target: Serine/threonine-protein kinase SIK2 (Homo sapiens) (UniProt Q9H0K1); assay: Inhibition of human SIK2 (2 to 962 residues) assessed as remaining enzyme activity at 50 uM after 30 mins by 33P-ATP filter-binding assay
[13] = biological target: Ribosomal protein S6 kinase alpha-1 (Homo sapiens) (UniProt Q15418); assay: Inhibition of human RSK1 (1 to 735 residues) assessed as remaining enzyme activity at 50 uM after 30 mins by 33P-ATP filter-binding assay
[14] = biological target: NUAK family SNF1-like kinase 1 (Homo sapiens) (UniProt O60285); assay: Inhibition of human NUAK1 (2 to 660 residues) assessed as remaining enzyme activity at 50 uM after 30 mins by 33P-ATP filter-binding assay
[15] = Cytotoxicity against human PANC1 cells assessed as cell growth inhibition after 48 hrs by MTT assay; format: functional; conditions: PANC-1, 48 h
[16] = biological target: Mitogen-activated protein kinase 1 (Homo sapiens) (UniProt P28482); assay: Inhibition of human ERK2 (2 to 360 residues) assessed as remaining enzyme activity at 50 uM after 30 mins by 33P-ATP filter-binding assay
[17] = biological target: Calcium/calmodulin-dependent protein kinase kinase 2 (Homo sapiens) (UniProt Q96RR4); assay: Inhibition of human CAMKKbeta (1 to 541 residues) assessed as remaining enzyme activity at 50 uM after 30 mins by 33P-ATP filter-binding assay
[18] = biological target: Phosphorylase kinase (Homo sapiens) (UniProt P15735+P46020+P46019+Q93100+Q16816); assay: Inhibition of human PHK assessed as remaining enzyme activity at 50 uM after 30 mins by 33P-ATP filter-binding assay; format: protein-complex assay
[19] = biological target: Serine/threonine-protein kinase 16 (Homo sapiens) (UniProt O75716); assay: Inhibition of human MPSK1 (1 to 305 residues) assessed as remaining enzyme activity at 50 uM after 30 mins by 33P-ATP filter-binding assay
[20] = Stability in SGF solution at 120 ug/ml after 8 hrs by RP-HPLC analysis; format: physicochemical; conditions: simulated gi fluid
[21] = biological target: Serine/threonine-protein kinase BRSK2 (Homo sapiens) (UniProt Q8IWQ3); assay: Inhibition of human BRSK2 (2 to 674residues) assessed as remaining enzyme activity at 50 uM after 30 mins by 33P-ATP filter-binding assay
[22] = biological target: Ephrin type-B receptor 4 (Homo sapiens) (UniProt P54760); assay: Inhibition of human EPHB4 (561 to 997 residues) assessed as remaining enzyme activity at 50 uM after 30 mins by 33P-ATP filter-binding assay
[23] = biological target: Protein-tyrosine kinase 6 (Homo sapiens) (UniProt Q13882); assay: Inhibition of human BRK (1 to 451 residues) assessed as remaining enzyme activity at 50 uM after 30 mins by 33P-ATP filter-binding assay
[24] = biological target: Mitogen-activated protein kinase kinase kinase 11 (Homo sapiens) (UniProt Q16584); assay: Inhibition of human MLK3 (96 to 386 residues) assessed as remaining enzyme activity at 50 uM after 30 mins by 33P-ATP filter-binding assay
[25] = biological target: T1, CDK2/Cyclin A2 (Homo sapiens); assay: Inhibition of human Cdk2/cyclin A assessed as remaining enzyme activity at 50 uM after 30 mins by 33P-ATP filter-binding assay; format: protein-complex assay
[26] = Thermodynamic equilibrium solubility in water at 120 ug/ml by HPLC analysis; format: physicochemical; conditions: read-out: Therm_solubility
[27] = biological target: Interleukin-1 receptor-associated kinase 4 (Homo sapiens) (UniProt Q9NWZ3); assay: Inhibition of human IRAK4 (14 to 460 residues) assessed as remaining enzyme activity at 50 uM after 30 mins by 33P-ATP filter-binding assay
Homo sapiens = species: Homo sapiens; assay: Inhibition of human PKA assessed as remaining enzyme activity at 50 uM after 30 mins by 33P-ATP filter-binding assay
[28] = biological target: Dual specificity tyrosine-phosphorylation-regulated kinase 1A (Homo sapiens) (UniProt Q13627); assay: Inhibition of human DYRK1A (1 to 502 residues) assessed as remaining enzyme activity at 50 uM after 30 mins by 33P-ATP filter-binding assay
[29] = Cell cycle arrest in human HL60 cells assessed as accumulation at S phase at 5 uM (reference value: 36 %); format: functional, cell-based; conditions: HL-60
[30] = biological target: Mitogen-activated protein kinase kinase kinase 7 (Homo sapiens) (UniProt O43318); assay: Inhibition of human TAK1 (1 to 303 residues) assessed as remaining enzyme activity at 50 uM after 30 mins by 33P-ATP filter-binding assay
Sequence of Mitogen-activated protein kinase kinase kinase 7 (Homo sapiens) (O43318 whole entry, the tested form may be a part): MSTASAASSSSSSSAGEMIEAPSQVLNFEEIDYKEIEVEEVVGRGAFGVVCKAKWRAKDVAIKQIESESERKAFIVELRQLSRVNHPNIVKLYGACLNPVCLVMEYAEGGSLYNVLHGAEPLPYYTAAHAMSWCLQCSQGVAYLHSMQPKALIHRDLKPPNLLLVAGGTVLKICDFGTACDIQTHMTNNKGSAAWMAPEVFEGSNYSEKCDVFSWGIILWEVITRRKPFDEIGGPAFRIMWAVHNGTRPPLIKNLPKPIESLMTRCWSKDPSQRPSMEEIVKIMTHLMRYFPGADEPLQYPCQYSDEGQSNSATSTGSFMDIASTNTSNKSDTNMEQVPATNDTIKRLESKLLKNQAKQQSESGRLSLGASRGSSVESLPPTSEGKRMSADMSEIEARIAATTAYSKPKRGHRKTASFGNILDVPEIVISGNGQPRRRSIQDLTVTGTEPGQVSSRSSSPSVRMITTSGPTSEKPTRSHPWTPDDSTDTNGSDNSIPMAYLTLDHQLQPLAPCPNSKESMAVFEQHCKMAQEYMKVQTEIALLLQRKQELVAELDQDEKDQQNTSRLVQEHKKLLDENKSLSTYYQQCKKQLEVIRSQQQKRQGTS

Sequence of Mitogen-activated protein kinase 1 (Homo sapiens) (P28482 whole entry, the tested form may be a part): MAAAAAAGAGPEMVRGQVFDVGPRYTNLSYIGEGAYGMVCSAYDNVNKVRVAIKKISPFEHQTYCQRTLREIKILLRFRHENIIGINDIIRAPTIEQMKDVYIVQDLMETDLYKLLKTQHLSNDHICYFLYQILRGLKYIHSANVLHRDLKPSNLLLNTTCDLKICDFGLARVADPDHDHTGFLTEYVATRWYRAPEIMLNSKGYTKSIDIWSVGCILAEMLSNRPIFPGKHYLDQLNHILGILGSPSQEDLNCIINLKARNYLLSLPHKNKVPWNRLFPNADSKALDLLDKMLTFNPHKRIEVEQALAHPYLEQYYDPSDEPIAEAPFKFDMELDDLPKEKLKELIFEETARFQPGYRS
Sequence of Ephrin type-B receptor 4 (Homo sapiens) (P54760 whole entry, the tested form may be a part): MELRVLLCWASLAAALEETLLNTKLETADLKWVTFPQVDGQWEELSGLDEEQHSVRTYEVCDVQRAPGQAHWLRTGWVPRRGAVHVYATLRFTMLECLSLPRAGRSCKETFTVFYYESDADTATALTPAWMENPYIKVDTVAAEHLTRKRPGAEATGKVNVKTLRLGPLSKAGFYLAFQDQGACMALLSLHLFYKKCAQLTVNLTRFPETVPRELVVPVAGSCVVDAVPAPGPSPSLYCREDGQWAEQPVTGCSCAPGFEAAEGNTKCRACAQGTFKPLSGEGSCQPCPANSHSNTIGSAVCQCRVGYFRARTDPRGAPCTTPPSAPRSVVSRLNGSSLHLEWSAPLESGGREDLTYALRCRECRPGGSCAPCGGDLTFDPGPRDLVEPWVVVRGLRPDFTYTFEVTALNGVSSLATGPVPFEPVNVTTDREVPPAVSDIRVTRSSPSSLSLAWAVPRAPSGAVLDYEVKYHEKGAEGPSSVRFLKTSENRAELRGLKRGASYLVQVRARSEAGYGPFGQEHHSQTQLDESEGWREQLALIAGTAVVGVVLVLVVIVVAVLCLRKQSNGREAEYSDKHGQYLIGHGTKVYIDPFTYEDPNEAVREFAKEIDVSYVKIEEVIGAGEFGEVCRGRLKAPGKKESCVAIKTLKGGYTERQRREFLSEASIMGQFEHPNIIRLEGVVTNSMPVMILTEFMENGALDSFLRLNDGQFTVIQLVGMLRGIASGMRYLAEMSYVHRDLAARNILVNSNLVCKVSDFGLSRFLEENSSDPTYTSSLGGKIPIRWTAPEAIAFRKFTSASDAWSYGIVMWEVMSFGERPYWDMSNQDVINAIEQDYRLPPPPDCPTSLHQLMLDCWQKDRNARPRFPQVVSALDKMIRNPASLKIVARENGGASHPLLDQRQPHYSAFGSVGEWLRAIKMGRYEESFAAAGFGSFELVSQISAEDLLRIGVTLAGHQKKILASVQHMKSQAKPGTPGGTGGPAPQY
Sequence of MAP kinase-activated protein kinase 2 (Homo sapiens) (P49137 whole entry, looked up, the tested form may be a part): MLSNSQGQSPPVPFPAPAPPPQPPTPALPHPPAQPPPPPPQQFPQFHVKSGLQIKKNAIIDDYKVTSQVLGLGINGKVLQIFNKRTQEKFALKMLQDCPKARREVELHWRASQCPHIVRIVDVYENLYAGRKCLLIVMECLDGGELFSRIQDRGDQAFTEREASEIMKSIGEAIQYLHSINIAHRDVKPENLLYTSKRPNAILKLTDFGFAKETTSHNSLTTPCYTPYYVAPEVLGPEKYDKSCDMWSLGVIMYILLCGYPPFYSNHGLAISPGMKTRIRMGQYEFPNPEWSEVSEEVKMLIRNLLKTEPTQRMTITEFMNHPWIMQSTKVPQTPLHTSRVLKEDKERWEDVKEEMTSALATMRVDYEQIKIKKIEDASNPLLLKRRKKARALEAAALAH
Sequence of Serine/threonine-protein kinase SIK2 (Homo sapiens) (Q9H0K1 whole entry, looked up, the tested form may be a part): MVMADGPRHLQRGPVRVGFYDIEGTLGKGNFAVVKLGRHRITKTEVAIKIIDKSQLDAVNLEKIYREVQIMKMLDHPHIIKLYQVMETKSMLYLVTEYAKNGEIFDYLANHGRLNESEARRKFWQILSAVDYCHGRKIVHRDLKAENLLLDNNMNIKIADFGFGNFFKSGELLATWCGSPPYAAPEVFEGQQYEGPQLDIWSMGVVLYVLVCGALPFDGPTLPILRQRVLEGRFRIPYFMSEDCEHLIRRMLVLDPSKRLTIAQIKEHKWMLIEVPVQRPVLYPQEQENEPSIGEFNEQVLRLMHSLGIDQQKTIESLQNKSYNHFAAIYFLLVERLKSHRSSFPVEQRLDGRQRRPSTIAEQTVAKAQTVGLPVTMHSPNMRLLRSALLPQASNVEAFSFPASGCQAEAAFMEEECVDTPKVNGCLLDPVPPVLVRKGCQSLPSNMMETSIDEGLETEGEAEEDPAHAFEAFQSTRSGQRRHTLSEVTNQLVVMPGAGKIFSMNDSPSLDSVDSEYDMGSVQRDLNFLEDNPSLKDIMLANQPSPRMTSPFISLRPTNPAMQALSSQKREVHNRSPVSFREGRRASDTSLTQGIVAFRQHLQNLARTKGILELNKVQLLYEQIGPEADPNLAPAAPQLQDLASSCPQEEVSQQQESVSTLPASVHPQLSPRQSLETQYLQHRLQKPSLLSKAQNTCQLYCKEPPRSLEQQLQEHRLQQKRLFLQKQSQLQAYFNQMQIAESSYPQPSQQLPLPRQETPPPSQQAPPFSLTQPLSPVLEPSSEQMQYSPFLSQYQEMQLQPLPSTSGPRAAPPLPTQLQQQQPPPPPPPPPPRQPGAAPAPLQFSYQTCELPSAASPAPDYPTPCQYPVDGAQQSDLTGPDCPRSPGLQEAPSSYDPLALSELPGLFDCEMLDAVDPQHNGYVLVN
Sequence of Tyrosine-protein kinase CSK (Homo sapiens) (P41240 2-450 limits assumed): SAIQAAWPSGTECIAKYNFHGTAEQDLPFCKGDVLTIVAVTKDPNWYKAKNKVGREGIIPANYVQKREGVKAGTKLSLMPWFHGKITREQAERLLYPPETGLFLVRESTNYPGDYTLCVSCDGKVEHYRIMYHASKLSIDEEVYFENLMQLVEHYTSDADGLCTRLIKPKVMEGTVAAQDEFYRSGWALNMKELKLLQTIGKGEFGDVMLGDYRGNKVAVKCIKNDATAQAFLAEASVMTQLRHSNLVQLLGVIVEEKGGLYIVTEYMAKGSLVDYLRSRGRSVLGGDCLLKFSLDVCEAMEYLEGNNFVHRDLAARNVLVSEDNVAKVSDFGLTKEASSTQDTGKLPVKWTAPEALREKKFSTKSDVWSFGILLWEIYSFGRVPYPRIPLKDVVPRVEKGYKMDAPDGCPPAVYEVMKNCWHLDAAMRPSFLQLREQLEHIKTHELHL
Sequence of Serine/threonine-protein kinase 16 (Homo sapiens) (O75716 whole entry, the tested form may be a part): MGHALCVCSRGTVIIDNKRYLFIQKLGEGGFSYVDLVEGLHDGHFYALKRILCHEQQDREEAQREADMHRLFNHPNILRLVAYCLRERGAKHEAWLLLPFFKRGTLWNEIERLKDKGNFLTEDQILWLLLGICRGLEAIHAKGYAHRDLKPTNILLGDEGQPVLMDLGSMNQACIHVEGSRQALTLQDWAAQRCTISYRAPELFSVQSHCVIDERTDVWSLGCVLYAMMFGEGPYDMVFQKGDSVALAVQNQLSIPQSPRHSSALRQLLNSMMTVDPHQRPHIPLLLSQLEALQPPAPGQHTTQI

Cc1cc(=O)c2c(O)cc(O)c([C@H]3CCN(C)C[C@H]3O)c2o1 [ROHITUKINE]
GI50 (MDA-MB-231): 13 µM
Activity [1]: 55%
GI50 [2]: 20 µM
Activity [3]: 56%
Stability [4]: Stable
solubility thermodynamic [5]: 16.9 mg/mL (≈ 55.5 mM)
GI50 at 48 h [6]: > 50 µM
Activity [7]: 79%
Activity [8]: 52%
Activity [9]: 67%
inhibition [10]: 10%
Activity [11]: 89%
Activity [12]: 19%
Activity [13]: 31%
Activity [14]: 52%
GI50 [15]: 22 µM
Activity [16]: 90%
Activity [17]: 18%
Activity [18]: 23%
Activity [19]: 87%
Stability [20]: Stable
Activity [21]: 65%
Activity [22]: 84%
Activity [23]: 93%
Activity [24]: 58%
Activity [25]: 16%
solubility thermodynamic [26]: 10.2 mg/mL (≈ 33.6 mM)
Activity [27]: 75%
Activity (Homo sapiens): 88%
Activity [28]: 27%
Activity [29]: 43%
Activity [30]: 70%

— ChEMBL document CHEMBL3826966, “A chromatography-free isolation of rohitukine from leaves of Dysoxylum binectariferum: Evaluation for in vitro cytotoxicity, Cdk inhibition and physicochemical properties” (Bioorg Med Chem Lett, 2016)
